Paper PMC9929129, “Towards Translation of PqsR Inverse Agonists: From In Vitro Efficacy Optimization to In Vivo Proof‐of‐Principle” (Advanced Science, 2023)

What was measured:
PA14 biofilm = assay: Biofilm-eradication assay with tobramycin (Calgary biofilm device); assay type: cell-based, Pseudomonas aeruginosa
Experimental: MA, USA) instrument parameters: Spray voltage 3500 V, vaporizer temperature 370 °C, sheath gas pressure 35 psi, aux gas pressure 30 psi, capillary temperature 270 °C, collision pressure 1.5 mTorr, positive ionization mode. For AQ analyte reaction monitoring parameters please see Table S1.
Table S1. LC-ESI-MS/MS reaction monitoring parameters of AQ analytes in positive ionization mode. precursor product ion collision tube lens retention ion m/z m/z energy (V) offset (V) time (min)
1.2.4 Biofilm-formation assay
Biofilm formation was determined using a MBEC Assay® Biofilm Inoculator with 96-well base (Innvotech, Edmonton, CA). An overnight culture of PA14 was centrifuged (10 min, 5000 x g). The supernatant including extracellular polymers was removed and the pellet washed with 10 mL of LB medium. Centrifugation was repeated, the supernatant discarded, and the pellet resuspended in 5 mL of LB. OD was adjusted to 0.2. The bacteria were further diluted in LB medium, followed by addition of the target compound or DMSO control to give OD 0.1 and 1% DMSO. 150 µL were added to each well of the 96-well plate. The outer wells were used as blanks containing 150 µL of 1% DMSO in LB. Six replicates per sample were distributed evenly across the plate, with every row containing one replicate of each sample. The well plate was covered with the peg lid. One layer of parafilm was wrapped around the biofilm inoculator. The inoculator was incubated at 37 °C, static for 24 h with a beaker of H2O ensuring humidity. Alternatively, the plate was incubated using only LB for 8 h prior to addition of DMSO/24 to give 1% DMSO, followed by another 16 h incubation under the same […]
After 24 h, the plate was removed from the incubator and the peg lid was transferred to a fresh 96 well plate (Nunc U bottom, Thermo Fisher, Dreieich, Germany) containing the respective target […]
compound, 150 µL 1% DMSO in LB. The inoculator was wrapped with parafilm again and incubated for another 24 h. […]
Statistical outliers were determined using the Nalimov test, applying a 95% cut-off. […]

[1] = test system: P. aeruginosa strain ATCC 27853; assay: Neutropenic thigh infection model in mice
Experimental: Figure S6. AUC levels after IV and IT administration
1.4.8 In vivo thigh infection model with P. aeruginosa
Male, 6 weeks-old, CD -1 mice (Charles River, Netherlands) were rendered neutropenic by administration of 150 mg/kg and 100 mg/kg cyclophosphamide i.p. on day –4, –1 and +1, respectively. The P. aeruginosa strain ATCC 27853 was used. The inoculum was prepared as follows: on day –1 the P. aeruginosa strain was streaked out onto a blood agar plate and incubated at 37 °C.
Then one sing le colony was inoculated into MHB medium (diluted 1:2 in water) and incubated at 120 rpm and 37 °C. […]
PBS. Then they were adjusted to an OD of 1 and diluted 1:5000 in PBS. The inoculum was plated onto MHB agar plates in serial dilutions and incubated at 37 °C. Mice were grouped into the following (n=18 for each group): (1) baseline inoculum group, sacrificed 2 h post infection; (2) vehicle control group (receiving vehicle t= 2, 12, 24 and 36 h post infection as well as 20 mg/kg tramadol SC t= 0 and 24 h post infection); (3) tobramycin group I (8 mg/kg tobramycin IV at t= 2 and 24 h post infection); (4) tobramycin group II (1 mg/kg tobramycin IV at t= 2 and 24 h post infection); (5) 24 group (30 mg/kg 24 SC at t=2, 12, 24 and 36 h post infection); (6) 24 + tobramycin group (30 mg/kg 24 SC at t=2, 12, 24 and 36 h and tobramycin 1 mg/kg IV at t= 2 and 24 h post infection). On the day of infection (day 0), mice received 30 µL of the P. aeruginosa strain ATCC 27853 into each lateral thigh (inoculum:
1x10^5 cfu/mL). 48 h after infection, mice were euthanized, blood was removed from the heart, lung and thighs were aseptically removed. […]
homogenized in 0.9% NaCl-solution and plated onto MHB agar plates in duplicate in serial dilutions and incubated at 37 °C for 24 h. Blood, lung and thighs were also subjected to LC-MS/MS analysis.
Figure S8. Plasma and lung-tissue levels after the in vivo infection model.

Row | Compound | Effect of tobramycin alone on untreated biofilms (CFU) (PA14 biofilm; tobramycin 0.5 µg mL^−1, 24 h treatment, p = 0.03) | terminal level in plasma and lung tissue (LC–MS/MS) ([1]; 48 h after infection) | CFU reduction over vehicle, primary infection site (thigh muscle) ([1]; tobramycin high, 8 mg/kg IV at 2 and 24 h p.i., 48 h) | bacterial burden, secondary site of infection (lung), dissemination ([1]; tobramycin high, 8 mg/kg IV, 48 h) | CFU reduction over vehicle, primary infection site (thigh muscle) ([1]; tobramycin low, 1 mg/kg IV at 2 and 24 h p.i., 48 h) | bacterial burden, secondary site of infection (lung), dissemination ([1]; tobramycin low, 1 mg/kg IV, 48 h) | Potentiation of tobramycin activity on biofilm (PA14 biofilm; 0.1 × 10^−6 M 24 plus tobramycin 0.5 µg mL^−1, p = 0.21) | CFU reduction of combination treatment compared to single treatment with the antibiotic (PA14 biofilm; 1 and 10 × 10^−6 M 24 plus tobramycin 0.5 µg mL^−1) [fold] | bacterial burden in the muscle compared to all other groups ([1]; 24 30 mg kg^−1 SC combined with low dose tobramycin 1 mg kg^−1 IV, 48 h, p < 0.001) | bacterial burden, secondary site of infection (lung), dissemination ([1]; 24 30 mg/kg SC combined with low tobramycin dose 1 mg/kg IV, 48 h) | CFU reduction over vehicle, primary infection site (thigh muscle) ([1]; 24 alone, 30 mg/kg SC at 2, 12, 24 and 36 h p.i., 48 h) | bacterial burden, secondary site of infection (lung), dissemination ([1]; 24 alone, 30 mg/kg SC, 48 h)
1 | NC[C@H]1O[C@H](O[C@H]2[C@H](O)[C@@H](O[C@H]3O[C@H](CO)[C@@H](O)[C@H](N)[C@H]3O)[C@H](N)C[C@@H]2N)[C@H](N)C[C@@H]1O [Tobramycin, tobramycin] | only minor effects | did not detect any | did not exert significant effects | did not reach significance | did not exert significant effects | did not show a significant effect |  |  |  |  |  | 
2 | CC(C)Oc1ccc(-c2ncc(CNc3ccnc(C(F)(F)F)c3)cn2)cc1Cl [Compound 24] |  |  |  |  |  |  | not sufficient | > 3 | significantly reduced bacterial burden | detectable inhibition of dissemination | did not exert significant effects | did not show a significant effect
